US20250235543A1, “MODIFIED PROTEINS AND PROTEIN DEGRADERS” (Cullgen (Shanghai), Inc., priority 2021, published 2025)
Where two headings read alike, the source gives them in different places.

Columns and labels:
cyclin D1 = test: Cyclin D1 percentage degradation in Calu-1 cells (immunoblotting); format: cell-based; conditions: 16 hours
Procedure, shortened: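 Cyclin D1 degradation was assessed by western blot. Clarified lysates, obtained by RIPA lysis with inhibitors and centrifugation at 13,000 rpm, were normalized by BCA protein assay and separated by SDS-PAGE. Bands were detected with Western ECL Substrate on a Bio-Rad ChemiDoc MP Imaging system and quantified in Image Lab software to derive percentage degradation.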

CDK4 = biological target: T1, CDK4 (Homo sapiens, UniProt P11802); test: CDK4 percentage degradation in Calu-1 cells (immunoblotting); format: cell-based; conditions: for inhibition at 10 µM: read-out: CDK4 Degradation (10 μM); for inhibition at 0.2 µM: read-out: CDK4 Degradation (200 nM)
T1 construct: endogenous in cells; host or cells: Calu-1
T1 sequence (P11802 2-303 limits assumed): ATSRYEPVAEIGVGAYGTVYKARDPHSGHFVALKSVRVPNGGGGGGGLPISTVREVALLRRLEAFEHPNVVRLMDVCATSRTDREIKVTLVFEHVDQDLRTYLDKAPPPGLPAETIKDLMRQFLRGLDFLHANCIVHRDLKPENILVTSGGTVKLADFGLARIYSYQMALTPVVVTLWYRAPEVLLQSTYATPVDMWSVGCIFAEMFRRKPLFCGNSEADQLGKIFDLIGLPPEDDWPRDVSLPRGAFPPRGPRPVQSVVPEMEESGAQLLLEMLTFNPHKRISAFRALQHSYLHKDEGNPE
T1 sequence (P24385 whole entry partner): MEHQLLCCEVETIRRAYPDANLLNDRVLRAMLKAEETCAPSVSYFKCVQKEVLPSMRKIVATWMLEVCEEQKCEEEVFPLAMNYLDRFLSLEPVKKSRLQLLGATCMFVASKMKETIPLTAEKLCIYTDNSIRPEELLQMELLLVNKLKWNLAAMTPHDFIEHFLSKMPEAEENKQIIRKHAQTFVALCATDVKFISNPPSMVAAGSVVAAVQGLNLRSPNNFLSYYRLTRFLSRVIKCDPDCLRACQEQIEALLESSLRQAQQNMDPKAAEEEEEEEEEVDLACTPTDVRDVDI
T1 sequence (Q16531 2-1140 limits assumed, further chain): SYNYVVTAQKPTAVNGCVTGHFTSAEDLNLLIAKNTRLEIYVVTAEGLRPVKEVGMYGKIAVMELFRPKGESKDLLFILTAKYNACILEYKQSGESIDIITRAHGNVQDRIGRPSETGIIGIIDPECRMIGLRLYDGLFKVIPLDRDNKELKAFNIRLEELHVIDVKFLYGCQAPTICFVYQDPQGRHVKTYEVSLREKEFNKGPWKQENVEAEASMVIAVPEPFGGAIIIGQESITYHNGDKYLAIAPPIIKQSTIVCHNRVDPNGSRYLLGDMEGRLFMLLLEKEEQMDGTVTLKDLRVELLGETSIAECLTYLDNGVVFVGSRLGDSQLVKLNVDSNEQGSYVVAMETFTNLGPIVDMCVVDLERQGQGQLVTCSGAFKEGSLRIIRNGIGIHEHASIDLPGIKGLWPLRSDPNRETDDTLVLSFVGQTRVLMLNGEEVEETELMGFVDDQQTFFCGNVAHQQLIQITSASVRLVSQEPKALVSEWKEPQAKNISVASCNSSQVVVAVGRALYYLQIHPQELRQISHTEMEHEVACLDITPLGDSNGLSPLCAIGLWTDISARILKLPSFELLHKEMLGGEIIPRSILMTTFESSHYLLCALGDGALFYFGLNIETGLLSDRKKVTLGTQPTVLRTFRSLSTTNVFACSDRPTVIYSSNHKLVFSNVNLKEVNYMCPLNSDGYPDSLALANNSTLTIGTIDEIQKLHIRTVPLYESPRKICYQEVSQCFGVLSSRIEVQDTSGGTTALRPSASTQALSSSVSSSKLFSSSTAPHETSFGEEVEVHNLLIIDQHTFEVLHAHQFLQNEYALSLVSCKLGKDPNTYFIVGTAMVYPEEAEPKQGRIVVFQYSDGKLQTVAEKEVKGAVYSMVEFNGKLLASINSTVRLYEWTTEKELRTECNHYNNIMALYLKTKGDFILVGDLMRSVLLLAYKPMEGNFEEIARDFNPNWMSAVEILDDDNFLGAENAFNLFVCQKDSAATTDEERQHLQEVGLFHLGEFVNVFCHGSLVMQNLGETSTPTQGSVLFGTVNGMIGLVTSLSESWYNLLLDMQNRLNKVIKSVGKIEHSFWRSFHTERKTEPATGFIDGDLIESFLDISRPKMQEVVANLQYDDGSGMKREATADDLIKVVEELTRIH
Procedure, shortened: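 CDK4 degradation was measured by immunoblotting. Cells were washed in cold PBS and lysed in RIPA buffer with inhibitors for 30 min at 4° C., then spun at 13,000 rpm to clear. After BCA protein determination, lysates were heated at 99° C. for 5 min in Laemmli buffer, resolved on SDS-PAGE, imaged on a ChemiDoc MP with ECL substrate, and band intensities quantified.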

inhibition at 10 µM (CDK4; Calu-1 cells, 16 hours) | inhibition at 0.2 µM (CDK4; Calu-1 cells, 200 nM, 16 hours) | SMILES | CyclinD1 Degradation (10 μM) (cyclin D1) | CyclinD1 Degradation (200 nM) (cyclin D1) | inhibition at 0.2 µM (CDK4; Calu-1, 16 h)
 | 50 to 80% | CC(=O)c1c(C)c2cnc(Nc3ccc(N4CCN(CC(=O)NCCOCCOCCNc5cccc(C(=O)Nc6cc(C)n(C)n6)c5C)CC4)cn3)nc2n(C2CCCC2)c1=O [CPD-067, 3-((2-(2-(2-(2-(4-(6-((6-Acetyl-8-cyclopentyl-5-methyl-7-oxo-7,8-dihydropyrido[2,3-d]pyrimidin-2-yl)amino)pyridin-3-yl)piperazin-1-yl)acetamido)ethoxy)ethoxy)ethyl)amino)-N-(1,5-dimethyl-1H-pyrazol-3-yl)-2-methylbenzamide] |  | A (protein percentage degradation >=80%) | 
 | < 30% | CC(=O)c1c(C)c2cnc(Nc3ccc(N4CCN(CC(=O)NCCOCCOCCNC(=O)c5ccc(C(=O)Nc6ncc(C)s6)c(C)c5)CC4)cn3)nc2n(C2CCCC2)c1=O [CPD-010, N^4-(2-(2-(2-(2-(4-(6-((6-Acetyl-8-cyclopentyl-5-methyl-7-oxo-7,8-dihydropyrido[2,3-d]pyrimidin-2-yl)amino)pyridin-3-yl)piperazin-1-yl)acetamido)ethoxy)ethoxy)ethyl)-2-methyl-N^1-(5-methylthiazol-2-yl)terephthalamide] |  | D (protein percentage degradation <30%) | 
 | 50 to 80% | CC(=O)c1c(C)c2cnc(Nc3ccc(N4CCN(CC(=O)NCCCCCCCCCNc5ccccc5C(=O)Nc5nc(C)c(C)s5)CC4)cn3)nc2n(C2CCCC2)c1=O [CPD-268, 2-((9-(2-(4-(6-((6-Acetyl-8-cyclopentyl-5-methyl-7-oxo-7,8-dihydropyrido[2,3-d]pyrimidin-2-yl)amino)pyridin-3-yl)piperazin-1-yl)acetamido)nonyl)amino)-N-(4,5-dimethylthiazol-2-yl)benzamide] |  | A (protein percentage degradation >=80%) | 
 | 50 to 80% | COc1ccc(NC(=O)c2ccccc2NC(=O)CCCCN2CCC(NC(=O)CN3CCN(c4ccc(Nc5ncc6c(C)c(C(C)=O)c(=O)n(C7CCCC7)c6n5)nc4)CC3)CC2)nn1 [CPD-346, 2-(5-(4-(2-(4-(6-((6-Acetyl-8-cyclopentyl-5-methyl-7-oxo-7,8-dihydropyrido[2,3-d]pyrimidin-2-yl)amino)pyridin-3-yl)piperazin-1-yl)acetamido)piperidin-1-yl)pentanamido)-N-(6-methoxypyridazin-3-yl)benzamide] |  | A (protein percentage degradation >=80%) | 
 | < 30% | CC(=O)c1c(C)c2cnc(Nc3ccc(N4CCN(CC(=O)NCCCCCCC(=O)Nc5ccccc5C(=O)Nc5nc(C)c(C)s5)CC4)cn3)nc2n(C2CCCC2)c1=O [CPD-169, 2-(7-(2-(4-(6-((6-Acetyl-8-cyclopentyl-5-methyl-7-oxo-7,8-dihydropyrido[2,3-d]pyrimidin-2-yl)amino)pyridin-3-yl)piperazin-1-yl)acetamido)heptanamido)-N-(4,5-dimethylthiazol-2-yl)benzamide] |  | D (protein percentage degradation <30%) | 

Second part, the compound before the results:

SMILES | inhibition at 10 µM (CDK4; Calu-1 cells, 16 hours) | inhibition at 0.2 µM (CDK4; Calu-1 cells, 200 nM, 16 hours) | CyclinD1 Degradation (10 μM) (cyclin D1) | CyclinD1 Degradation (200 nM) (cyclin D1) | inhibition at 0.2 µM (CDK4; Calu-1, 16 h)
Cc1nc(NC(=O)c2ccccc2NC(=O)CCCCCNC(=O)CN2CCN(Cc3ccc(Nc4ncc(F)c(-c5cc(F)c6nc(C)n(C(C)C)c6c5)n4)nc3)CC2)sc1C [CPD-276, N-(4,5-Dimethylthiazol-2-yl)-2-(6-(2-(4-((6-((5-fluoro-4-(4-fluoro-1-isopropyl-2-methyl-1H-benzo[d]imidazol-6-yl)pyrimidin-2-yl)amino)pyridin-3-yl)methyl)piperazin-1-yl)acetamido)hexanamido)benzamide] | < 30% |  | D (protein percentage degradation < 30%) |  | 
CC(=O)c1c(C)c2cnc(Nc3ccc(N4CCN(CC(=O)NCCOCCOCCC(=O)Nc5cccc(Cl)c5C(=O)Nc5ccc(C)cn5)CC4)cn3)nc2n(C2CCCC2)c1=O [CPD-337] |  | < 30% |  | D (protein percentage degradation <30%) | 
CC(=O)c1c(C)c2cnc(Nc3ccc(N4CCN(C(=O)CCOCCNc5cccc(C(=O)Nc6nc(C)c(C)s6)c5C)CC4)cn3)nc2n(C2CCCC2)c1=O [CPD-120, 3-((2-(3-(4-(6-((6-Acetyl-8-cyclopentyl-5-methyl-7-oxo-7,8-dihydropyrido[2,3-d]pyrimidin-2-yl)amino)pyridin-3-yl)piperazin-1-yl)-3-oxopropoxy)ethyl)amino)-N-(4,5-dimethylthiazol-2-yl)-2-methylbenzamide] |  |  |  | D (protein percentage degradation <30%) | < 30%
CC(=O)c1c(C)c2cnc(Nc3ccc(N4CCN(CC(=O)NCCOCCOCCOCCOCCOCCNc5ccc(C(=O)Nc6nc(-c7ccccc7)c(C)s6)c(C)c5)CC4)cn3)nc2n(C2CCCC2)c1=O [CPD-034] |  | < 30% |  | D (protein percentage degradation <30%) | 
CC(=O)c1c(C)c2cnc(Nc3ccc(N4CCN(CC(=O)NCCCCCCCNc5cccc(C(=O)Nc6ccc(C)nc6)c5C)CC4)cn3)nc2n(C2CCCC2)c1=O [CPD-328, 3-((7-(2-(4-(6-((6-Acetyl-8-cyclopentyl-5-methyl-7-oxo-7,8-dihydropyrido[2,3-d]pyrimidin-2-yl)amino)pyridin-3-yl)piperazin-1-yl)acetamido)heptyl)amino)-2-methyl-N-(6-methylpyridin-3-yl)benzamide] |  | < 30% |  | D (protein percentage degradation <30%) | 
CC(=O)c1c(C)c2cnc(Nc3ccc(N4CCN(CC(=O)NCCOCCOCCC(=O)Nc5ccc(Br)cc5C(=O)Nc5nc(C)c(C)s5)CC4)cn3)nc2n(C2CCCC2)c1=O [CPD-145, 2-(3-(2-(2-(2-(4-(6-((6-Acetyl-8-cyclopentyl-5-methyl-7-oxo-7,8-dihydropyrido[2,3-d]pyrimidin-2-yl)amino)pyridin-3-yl)piperazin-1-yl)acetamido)ethoxy)ethoxy)propanamido)-5-bromo-N-(4,5-dimethylthiazol-2-yl)benzamide] |  | < 30% |  | D (protein percentage degradation <30%) | 
CC(=O)c1c(C)c2cnc(Nc3ccc(N4CCN(CC(=O)NCCOCCOCCOCCOCCOCCNc5ccc(C(=O)Nc6ccc(C)cc6)c(C)c5)CC4)cn3)nc2n(C2CCCC2)c1=O [CPD-025, 4-((1-(4-(6-((6-Acetyl-8-cyclopentyl-5-methyl-7-oxo-7,8-dihydropyrido[2,3-d]pyrimidin-2-yl)amino)pyridin-3-yl)piperazin-1-yl)-2-oxo-6,9,12,15,18-pentaoxa-3-azaicosan-20-yl)amino)-2-methyl-N-(p-tolyl)benzamide] |  |  |  | D (protein percentage degradation <30%) | < 30%
CC(=O)c1c(C)c2cnc(Nc3ccc(N4CCN(CC(=O)NCCOCCOCCC(=O)Nc5cc6c(cc5C(=O)Nc5ccc(C)cn5)CCN6)CC4)cn3)nc2n(C2CCCC2)c1=O [CPD-360, 6-(3-(2-(2-(2-(4-(6-((6-Acetyl-8-cyclopentyl-5-methyl-7-oxo-7,8-dihydropyrido[2,3-d]pyrimidin-2-yl)amino)pyridin-3-yl)piperazin-1-yl)acetamido)ethoxy)-ethoxy)propanamido)-N-(5-methylpyridin-2-yl)indoline-5-carboxamide] |  | > 80% |  | A (protein percentage degradation >=80%) | 
CC(=O)c1c(C)c2cnc(Nc3ccc(N4CCN(CCNCCOCCOCCNc5cccc(C(=O)Nc6nc(C)c(C)s6)c5C)CC4)cn3)nc2n(C2CCCC2)c1=O [CPD-086, 3-((2-(2-(2-((2-(4-(6-((6-Acetyl-8-cyclopentyl-5-methyl-7-oxo-7,8-dihydropyrido[2,3-d]pyrimidin-2-yl)amino)pyridin-3-yl)piperazin-1-yl)ethyl)amino)ethoxy)ethoxy)ethyl)amino)-N-(4,5-dimethylthiazol-2-yl)-2-methylbenzamide] |  |  |  | D (protein percentage degradation <30%) | < 30%
Cc1nc(NC(=O)c2ccccc2NC(=O)CCCCCCNC(=O)CN2CCN(Cc3ccc(Nc4ncc(F)c(-c5cc(F)c6nc(C)n(C(C)C)c6c5)n4)nc3)CC2)sc1C [CPD-277, N-(4,5-Dimethylthiazol-2-yl)-2-(7-(2-(4-((6-((5-fluoro-4-(4-fluoro-1-isopropyl-2-methyl-1H-benzo[d]imidazol-6-yl)pyrimidin-2-yl)amino)pyridin-3-yl)methyl)piperazin-1-yl)acetamido)heptanamido)benzamide] | < 30% |  | D (protein percentage degradation < 30%) |  | 
CC(=O)c1c(C)c2cnc(Nc3ccc(N4CCN(C(=O)CCCCCCCNc5cccc(C(=O)Nc6nc(C)c(C)s6)c5C)CC4)cn3)nc2n(C2CCCC2)c1=O [CPD-125, 3-((8-(4-(6-((6-Acetyl-8-cyclopentyl-5-methyl-7-oxo-7,8-dihydropyrido[2,3-d]pyrimidin-2-yl)amino)pyridin-3-yl)piperazin-1-yl)-8-oxooctyl)amino)-N-(4,5-dimethylthiazol-2-yl)-2-methylbenzamide] |  |  |  | D (protein percentage degradation <30%) | < 30%
CC(=O)c1c(C)c2cnc(Nc3ccc(N4CCN(CCOCCOCCOCCC(=O)Nc5ccccc5C(=O)Nc5nc(C)c(C)s5)CC4)cn3)nc2n(C2CCCC2)c1=O [CPD-178, 2-(3-(2-(2-(2-(4-(6-((6-Acetyl-8-cyclopentyl-5-methyl-7-oxo-7,8-dihydropyrido[2,3-d]pyrimidin-2-yl)amino)pyridin-3-yl)piperazin-1-yl)ethoxy)ethoxy)ethoxy)propanamido)-N-(4,5-dimethylthiazol-2-yl)benzamide] |  |  |  | D (protein percentage degradation <30%) | < 30%
